According to paper PMC3274751 (ACS medicinal chemistry letters, 2011):

How the values were obtained:
[1] = system: MeV-Alaska; assay: Viral CPE inhibition; conditions: compared with BM-1
[2] = system: actively dividing cells; conditions: cited from earlier work
[3] = system: Vero cells; assay: Cytotoxicity in Vero cells

SMILES	fold reduction of potency relative to BM-1 [1]	effect on cell proliferation [2]	acute cytotoxicity [3]
COc1ccc(-n2c(SC(C)C(=O)Nc3nc(C)cs3)nc3ccccc32)cc1 (centres unmarked) [Compound 6m]	10 fold		
COc1ccc(-n2c(SC(C)C(=O)Nc3cc(C)no3)nc3ccccc32)cc1 (centres unmarked) [Compound 6n]	2 fold		
COc1ccc(-n2c(SC(C)C(=O)Nc3cc(C)nn3C)nc3ccccc32)cc1 (centres unmarked) [Compound 6j]	2 fold		
COc1ccc(-n2c(SC(C)C(=O)Nc3ccc(C)cc3Cl)nc3ccccc32)cc1 (centres unmarked) [Compound 6p]		cytostatic effect	does not display any detectable acute cytotoxicity
